Measurements: PMC7849180 (Frontiers in Pharmacology, 2020)
pIC50: −log10 of the molar value. Where two headings read alike, the source gives them in different places.

Columns and labels:
[1] = Treatment-related AEs (NCI CTCAE), MAD cohorts; format: in vivo, human
Method: MAD study was conducted after evaluating the tolerance of the single dose 100 mg cohort. In MAD part, volunteers were designed into five cohorts (100 mg q24h, 150 mg q24h, 100 mg q12h, 200 mg q24h, 150 mg q12h). […] The MAD part was initiated after the safety and tolerance evaluation from SAD 100 mg cohorts. Progression to higher MAD doses was allowed after review the safety data of the prior MAD cohorts.
Dose-limiting toxicities (DLTs) were defined according to the NCI CTCAE v.4.03 as any occurrence of the following drug-related adverse events (AEs): more than one third of volunteers suffered Grade ≥4 drug-related hematological toxicities or Grade ≥3 drug-related nonhematological toxicities; one drug-related serious adverse events (SAEs).

[2] = test system: Ba/F3-EpoR-JAK2V617F cells; assay: Cell activity of mutant Ba/F3-EpoR-JAK2V617F; format: cell-based; conditions: read-out: IC50, inhibition of cell activity
Excerpt: Suzhou Zelgen Biopharmaceuticals Co., Ltd. Jaktinib Hydrochloride Tablets Chemical Drug Class 1 New Drug has been completed. The ongoing toxicity tests include a long-term 39-week toxicity test in Beagle dogs by oral administration, a reproductive toxicity test in rats during the teratogenic sensitive period, and a reproductive toxicity test in rabbits during the teratogenic sensitive period.
Preclinical Pharmacodynamic Study
Study on the in vitro Pharmacodynamic Effects of ZG0163 at the […]
In this study, the effects of ZG0163 was similar to those of positive control compounds, ZG0164 and ZG0178.
Study on the in vitro Pharmacodynamic Effects of ZG0163 at the Cellular Level (Ba/F3-EpoR-JAK2V617F cells)
JAK2V617F cell line, the compound ZG0163 was able to induce apoptosis of pathogenic cells and eliminate abnormal cell proliferation by inhibiting the JAK-STAT signaling pathway, thus achieving treatment efficacy in myeloproliferative neoplasms. […]
cell line, manifested as significant inhibition of phosphorylation of JAK2 and its downstream signaling proteins ERK and STAT5. The effects of ZG0163 was similar to those of positive control compounds, ZG0164 and ZG0178.
EpoR-JAK2V617F, which was similar to those of positive control compounds, ZG0164 […]
and ZG0178. However, the inhibitory effect on the activity of Ba/F3-EpoR cell line […]
respectively. […]

[3] = Estimate of human equivalent and starting dose from animal NOAEL; conditions: for maximum safe starting dose in human: safety factor 10; for MRSD: safety factor 10, 60 kg
Method: The human equivalent doses (HED) for the above tests were 9 mg/kg and 5 mg/kg, respectively (Table 9). According to the "Guidance for Estimating the Maximum Recommended Dose in Initial Clinical Trials for Therapeutics in Adult Healthy Volunteers" issued by CFDA and a safety factor of 10, the maximum safe starting doses for the first dose in human were calculated as about 50 mg and 30 mg, respectively.
The single starting dose of this study was set to 25 mg, while the highest dose was set to 400 mg. The 400 mg dose would not be further increased even it was […]
Animal Test Anima Dosage HNSTD HED MRSD […]
Toxicity Test 61.0/oral gavage in Beagle Dogs 196.2/oral gavage a The safety factor was 10, while the human body weight was calculated as 60 kg. […]

[4] = Metabolic stability in liver microsomes; format: in vitro ADME, human
Method: (§1) The metabolic stability of ZG0128 (the dihydrochloride monohydrate of ZG0163) was evaluated using human, monkey, dog, rat, and mouse liver microsomes as the in vitro models. The percentages of residues for ZG0128 after incubating in human, monkey, dog, rat, and mouse liver microsomes for 60 minutes was 55.5%, 63.1%, 67.1%, 80.3%, and 79.0%, respectively. The CLint values of in vivo clearance were calculated to be 24.1, 21.6, 33.4, 10.7, 26.0 mL/min/kg, respectively. Thus its was speculated that ZG0128 was a medium clearance drug in humans, monkeys, and mice, a high clearance drug in dogs, and a low clearance drug in rats.
(§2) Using UPLC-UV/Q-TOF MS, the potential metabolites of ZG0128 in various liver microsomes (human, monkey, dog, rat and mouse liver microsomes) incubation systems were identified and the metabolic pathways of ZG0128 were speculated. The main metabolite of ZG0128 in above five types of liver microsomes were primary alcohol metabolite formed by morpholine ring-opening (M3). […]

[5] = Metabolic stability in liver microsomes; format: in vitro ADME, dog
Method: as §1, §2

| Compound | diarrhea incidence ([1]; MAD jaktinib group) [%] | dizziness incidence ([1]; MAD jaktinib group) [%] | leukopenia incidence ([1]; MAD jaktinib group) [%] | volunteers with treatment-related AEs ([1]; all MAD cohorts) [%] | deaths, SAEs and Grade ≥4 AEs ([1]; all cohorts (SAD, MAD, food effect)) | Neutropenia incidence ([1]; in vivo) [%] | maximally tolerated dose ([1]; multiple dose, q24 h) [mg] | pIC50 [2] | human equivalent dose (HED) ([3]; from 26-week rat NOAEL) [mg/kg] | human equivalent dose (HED) ([3]; from 28-day Beagle dog NOAEL) [mg/kg] | maximum safe starting dose in human ([3]; from dog NOAEL) | MRSD ([3]; from dog NOAEL) [mg/day] | maximum safe starting dose in human ([3]; from rat NOAEL) [mg] | MRSD ([3]; from rat NOAEL) [mg/day] | CLint of in vivo clearance [4] [mL/min/kg] | percentage of residue after 60 minutes [4] [%] | CLint of in vivo clearance [5] [mL/min/kg] | percentage of residue after 60 minutes [5] [%] |
| --- | --- | --- | --- | --- | --- | --- | --- | --- | --- | --- | --- | --- | --- | --- | --- | --- | --- | --- |
| Jaktinib | 22.5 | 17.5 | 12.5 | 74.0 | No deaths, SAEs and Grade ≥4 AEs were reported | 27.5 | 200 | 6.30 | 5 | 9 | about 50 mg | 54 | ~30 | 30 |  |  |  |  |
| Cl.Cl.O.[2H]C1([2H])COCC([2H])([2H])N1c1ccc(Nc2nccc(-c3ccc(C(=O)NCC#N)cc3)n2)cc1 [ZG0128, Jaktinib Dihydrochloride Monohydrate] |  |  |  |  |  |  |  |  |  |  |  |  |  |  | 24.1 | 55.5 | 33.4 | 67.1 |
